Experimental data published in patent publication US10112943B2, “Substituted imidazoles as gamma secretase modulators” (Janssen Pharmaceutica NV, priority 2012, dated 2018).

Columns and labels:
[1] = biological target: T1, γ-secretase (Homo sapiens, UniProt P49768); assay: Screening for γ-secretase-modulating activity: Aβtotal in cell supernatant (Alphalisa sandwich immuno-assay); type: cell-based; conditions: SKNBE2 human neuroblastoma cells carrying hAPP 695-wild type, overnight incubation
T1 construct: endogenous in cells; host or cells: SKNBE2 human neuroblastoma cells carrying hAPP 695 wild type
Method: (§1) A) Screening of the Compounds of the Invention for γ-Secretase-Modulating Activity
(§2) Screening was carried out using SKNBE2 human neuroblastoma cells carrying the hAPP 695-wild type, grown in Dulbecco's Modified Eagle's Medium/Nutrient mixture F-12 (DMEM/NUT-mix F-12) (HAM) provided by Invitrogen (cat no. 10371-029) containing 5% Serum/Fe supplemented with 1% non-essential amino acids, 1-glutamine 2 mM, Hepes 15 mM, penicillin 50 U/ml (units/ml) and streptomycin 50 μg/ml. Cells were grown to near confluency.
(§3) The screening was performed using a modification of the assay as described in Citron et al (1997) Nature Medicine 3: 67. Briefly, cells were plated in a 384-well plate at 10^4 cells/well in Ultraculture (Lonza, BE12-725F) supplemented with 1% glutamine (Invitrogen, 25030-024), 1% non-essential amino acid (NEAA), penicillin 50 U/ml en streptomycin 50 μg/ml in the presence of test compound at different test concentrations. The cell/compound mixture was incubated overnight at 37° C., 5% CO2. The next day the media were assayed by two sandwich immuno-assays, for Aβ42 and Aβtotal.
(§4) Aβtotal and Aβ42 concentrations were quantified in the cell supernatant using the Aphalisa technology (Perkin Elmer). Alphalisa is a sandwich assay using biotinylated antibody attached to streptavidin coated donorbeads and antibody conjugated to acceptor beads. In the presence of antigen, the beads come into close proximity. The excitation of the donor beads provokes the release of singlet oxygen molecules that trigger a cascade of energy transfer in the acceptor beads, resulting in light emission. To quantify the amount of Aβ42 in the cell supernatant, monoclonal antibody specific to the C-terminus of Aβ42 (JRF/cAβ42/26) was coupled to the receptor beads and biotinylated antibody specific to the N-terminus of Aβ (JRF/AβN/25) was used to react with the donor beads. To quantify the amount of Aβtotal in the cell supernatant, monoclonal antibody specific to the N-terminus of Aβ (JRF/AβN/25) was coupled to the receptor beads and biotinylated antibody specific to the mid region of Aβ (biotinylated 4G8) was used to react with the donor beads.
(§5) The sigmoidal dose response curves were analyzed using non-linear regression analysis with percentage of the control plotted against the log concentration of the compound. A 4-parameter equation was used to determine the IC50.

[2] = biological target: T1, γ-secretase; assay: Screening for γ-secretase-modulating activity: Aβ42 in cell supernatant (Alphalisa sandwich immuno-assay); type: cell-based; conditions: SKNBE2 human neuroblastoma cells carrying hAPP 695-wild type, overnight incubation
Method: as §1, §2, §3, §4
To obtain the values reported in Table 3, the data are calculated as percentage of the maximum amount of amyloid Beta 42 measured in the absence of the test compound.
as §5

IC50 [1]: > 10 µM
melting point: 254.8 °C
IC50 [2]: 0.05 µM
Structure (SMILES): Cc1cn(-c2ccc3n(c2=O)C[C@@H]2CC[C@@H](Cc4cc(C(F)(F)F)cc(C(F)(F)F)c4)N2C3=O)cn1 (single isomer, unassigned) [Compound 4, 3-[[3,5-bis(trifluoromethyl)phenyl]methyl]-2,3,11,11a-tetrahydro-8-(4-methyl-1H-imidazol-1-yl)-1H-pyrido[1,2-a]pyrrolo[1,2-d]pyrazine-5,9-dione ((3S, 11aS) or (3R, 11aR))]
